Measured values published in publication PMC3961306, “Comparison of the Cancer Gene Targeting and Biochemical Selectivities of All Targeted Kinase Inhibitors Approved for Clinical Use” (PLoS ONE, 2014).

Legend:
Assay in all cases: Kinase profiling in a biochemical assay panel (mobility shift assays and ELISA), %-inhibition at 1 μM; selectivity entropy
[1] = target: T1, panel of more than 300 wild-type and mutant kinases (313 kinase panel) (Homo sapiens, UniProt Q12866)
T1 sequence (Q12866 21-999): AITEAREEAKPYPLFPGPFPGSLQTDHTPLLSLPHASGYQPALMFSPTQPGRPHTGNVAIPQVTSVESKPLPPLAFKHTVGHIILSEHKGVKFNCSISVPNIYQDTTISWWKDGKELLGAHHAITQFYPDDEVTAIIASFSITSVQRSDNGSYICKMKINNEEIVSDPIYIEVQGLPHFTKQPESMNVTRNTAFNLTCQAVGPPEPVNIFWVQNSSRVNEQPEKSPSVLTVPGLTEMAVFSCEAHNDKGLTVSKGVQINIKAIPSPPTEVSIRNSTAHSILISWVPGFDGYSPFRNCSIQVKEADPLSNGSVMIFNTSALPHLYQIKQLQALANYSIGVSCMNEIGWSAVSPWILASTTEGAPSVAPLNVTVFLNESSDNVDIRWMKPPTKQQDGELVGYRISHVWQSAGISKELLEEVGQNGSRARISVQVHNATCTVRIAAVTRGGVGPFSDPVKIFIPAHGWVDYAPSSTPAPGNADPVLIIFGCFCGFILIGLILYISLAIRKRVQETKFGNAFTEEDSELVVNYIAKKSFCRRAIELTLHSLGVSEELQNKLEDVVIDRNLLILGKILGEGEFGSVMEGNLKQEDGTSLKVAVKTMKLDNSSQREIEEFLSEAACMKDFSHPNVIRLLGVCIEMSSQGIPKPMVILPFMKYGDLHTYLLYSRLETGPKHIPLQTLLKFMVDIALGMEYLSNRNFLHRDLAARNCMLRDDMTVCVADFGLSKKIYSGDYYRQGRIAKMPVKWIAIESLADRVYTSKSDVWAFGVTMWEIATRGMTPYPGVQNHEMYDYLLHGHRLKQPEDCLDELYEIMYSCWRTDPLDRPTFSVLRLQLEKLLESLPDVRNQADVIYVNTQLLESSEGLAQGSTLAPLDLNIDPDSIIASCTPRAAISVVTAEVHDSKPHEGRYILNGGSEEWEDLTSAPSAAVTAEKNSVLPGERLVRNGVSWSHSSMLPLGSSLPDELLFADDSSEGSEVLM

[2] = target: panel of more than 300 wild-type and mutant kinases (313 kinase panel) (Homo sapiens, UniProt P48729)
[3] = target: panel of more than 300 wild-type and mutant kinases (313 kinase panel) (Homo sapiens, UniProt Q9HC98)
[4] = target: panel of more than 300 wild-type and mutant kinases (313 kinase panel) (Homo sapiens, UniProt O75582)
[5] = target: panel of more than 300 wild-type and mutant kinases (313 kinase panel) (Homo sapiens, UniProt P49759)
[6] = target: panel of more than 300 wild-type and mutant kinases (313 kinase panel) (Homo sapiens, UniProt P11309)
[7] = target: T2, panel of more than 300 wild-type and mutant kinases (313 kinase panel) (Homo sapiens, UniProt Q9UQB9)
T2 sequence (Q9UQB9 1-309): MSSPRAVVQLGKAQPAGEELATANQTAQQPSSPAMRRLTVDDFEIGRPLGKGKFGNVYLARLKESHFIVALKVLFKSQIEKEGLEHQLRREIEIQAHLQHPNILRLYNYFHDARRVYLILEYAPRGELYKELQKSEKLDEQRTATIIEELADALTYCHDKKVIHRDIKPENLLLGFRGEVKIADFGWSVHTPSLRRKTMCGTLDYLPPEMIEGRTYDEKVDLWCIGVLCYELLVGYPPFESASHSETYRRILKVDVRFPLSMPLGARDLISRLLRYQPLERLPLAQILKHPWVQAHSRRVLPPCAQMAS

[8] = target: panel of more than 300 wild-type and mutant kinases (313 kinase panel) (Homo sapiens, UniProt P07947)
[9] = target: panel of more than 300 wild-type and mutant kinases (313 kinase panel) (Homo sapiens, UniProt Q96RG2)
[10] = target: panel of more than 300 wild-type and mutant kinases (313 kinase panel) (Homo sapiens, UniProt Q02763)
[11] = target: panel of more than 300 wild-type and mutant kinases (313 kinase panel) (Homo sapiens, UniProt P49761)
[12] = target: panel of more than 300 wild-type and mutant kinases (313 kinase panel) (Homo sapiens, UniProt P22455, V550E); settings: kinase FGFR4(V550E); compound at 1 μM
[13] = target: panel of more than 300 wild-type and mutant kinases (313 kinase panel) (Homo sapiens, UniProt P42685)
[14] = target: panel of more than 300 wild-type and mutant kinases (313 kinase panel) (Homo sapiens, UniProt P08581)

Chain of panel of more than 300 wild-type and mutant kinases (313 kinase panel) (Homo sapiens, UniProt P42685) (P42685 whole entry, change not shown): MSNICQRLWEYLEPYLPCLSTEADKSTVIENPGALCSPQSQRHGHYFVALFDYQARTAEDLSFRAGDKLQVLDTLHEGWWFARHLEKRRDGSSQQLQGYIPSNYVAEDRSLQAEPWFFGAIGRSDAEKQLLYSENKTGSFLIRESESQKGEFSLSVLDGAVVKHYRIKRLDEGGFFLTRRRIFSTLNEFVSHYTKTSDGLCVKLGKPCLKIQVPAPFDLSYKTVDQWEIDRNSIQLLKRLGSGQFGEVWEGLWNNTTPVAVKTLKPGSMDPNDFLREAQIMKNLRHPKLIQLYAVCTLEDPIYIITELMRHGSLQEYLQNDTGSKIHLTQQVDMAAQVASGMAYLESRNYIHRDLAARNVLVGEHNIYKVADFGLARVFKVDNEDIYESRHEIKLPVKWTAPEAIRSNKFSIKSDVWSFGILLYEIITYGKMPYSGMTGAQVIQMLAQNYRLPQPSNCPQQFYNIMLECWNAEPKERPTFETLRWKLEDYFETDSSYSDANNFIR
Chain of panel of more than 300 wild-type and mutant kinases (313 kinase panel) (Homo sapiens, UniProt Q96RG2) (Q96RG2 whole entry, change not shown): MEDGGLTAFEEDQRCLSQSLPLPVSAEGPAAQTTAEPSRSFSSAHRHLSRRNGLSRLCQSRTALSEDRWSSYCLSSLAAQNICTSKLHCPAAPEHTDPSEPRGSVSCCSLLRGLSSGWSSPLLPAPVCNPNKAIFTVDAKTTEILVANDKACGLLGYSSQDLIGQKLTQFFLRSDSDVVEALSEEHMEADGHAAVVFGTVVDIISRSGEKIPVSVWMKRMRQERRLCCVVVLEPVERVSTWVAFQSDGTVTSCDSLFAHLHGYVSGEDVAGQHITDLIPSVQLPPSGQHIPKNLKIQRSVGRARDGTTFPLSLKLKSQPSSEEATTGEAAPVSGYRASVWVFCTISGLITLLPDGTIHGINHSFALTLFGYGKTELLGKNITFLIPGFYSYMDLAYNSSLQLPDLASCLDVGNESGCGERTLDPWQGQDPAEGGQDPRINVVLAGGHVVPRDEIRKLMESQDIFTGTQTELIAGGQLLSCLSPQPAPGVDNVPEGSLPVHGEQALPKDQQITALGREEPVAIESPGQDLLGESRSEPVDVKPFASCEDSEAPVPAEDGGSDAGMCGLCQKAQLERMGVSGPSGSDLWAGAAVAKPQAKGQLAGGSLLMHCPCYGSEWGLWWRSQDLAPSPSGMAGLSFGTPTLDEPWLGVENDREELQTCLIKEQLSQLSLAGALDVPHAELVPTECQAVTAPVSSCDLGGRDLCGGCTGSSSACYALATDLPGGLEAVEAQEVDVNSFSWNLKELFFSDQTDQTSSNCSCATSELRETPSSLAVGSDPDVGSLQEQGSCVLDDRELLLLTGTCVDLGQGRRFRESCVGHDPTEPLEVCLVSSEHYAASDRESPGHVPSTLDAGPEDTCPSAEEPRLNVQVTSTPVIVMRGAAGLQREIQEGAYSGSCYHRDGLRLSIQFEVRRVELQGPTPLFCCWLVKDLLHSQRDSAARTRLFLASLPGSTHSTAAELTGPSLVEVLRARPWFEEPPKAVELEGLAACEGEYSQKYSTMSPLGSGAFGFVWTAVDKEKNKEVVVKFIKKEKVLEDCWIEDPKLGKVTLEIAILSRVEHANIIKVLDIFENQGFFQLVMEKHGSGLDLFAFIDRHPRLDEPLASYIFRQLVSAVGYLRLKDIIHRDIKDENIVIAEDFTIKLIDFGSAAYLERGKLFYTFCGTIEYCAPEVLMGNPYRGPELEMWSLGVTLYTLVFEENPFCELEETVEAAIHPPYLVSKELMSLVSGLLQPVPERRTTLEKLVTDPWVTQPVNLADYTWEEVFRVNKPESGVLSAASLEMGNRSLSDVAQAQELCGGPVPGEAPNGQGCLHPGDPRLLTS
Chain of panel of more than 300 wild-type and mutant kinases (313 kinase panel) (Homo sapiens, UniProt P49761) (P49761 whole entry, stated change not applied): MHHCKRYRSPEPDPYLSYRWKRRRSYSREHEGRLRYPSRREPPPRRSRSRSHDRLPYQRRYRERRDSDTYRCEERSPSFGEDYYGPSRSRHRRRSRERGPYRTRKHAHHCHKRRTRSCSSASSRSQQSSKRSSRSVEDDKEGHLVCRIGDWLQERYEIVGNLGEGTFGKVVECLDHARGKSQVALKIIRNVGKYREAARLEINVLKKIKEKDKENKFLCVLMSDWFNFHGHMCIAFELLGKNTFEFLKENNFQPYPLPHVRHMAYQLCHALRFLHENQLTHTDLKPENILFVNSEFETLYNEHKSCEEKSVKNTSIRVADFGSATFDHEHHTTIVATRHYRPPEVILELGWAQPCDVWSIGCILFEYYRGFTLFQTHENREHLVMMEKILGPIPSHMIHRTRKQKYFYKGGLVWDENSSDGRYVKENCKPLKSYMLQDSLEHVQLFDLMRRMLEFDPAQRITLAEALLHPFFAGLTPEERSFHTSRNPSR
Chain of panel of more than 300 wild-type and mutant kinases (313 kinase panel) (Homo sapiens, UniProt P22455, V550E) (P22455 22-802 V550E): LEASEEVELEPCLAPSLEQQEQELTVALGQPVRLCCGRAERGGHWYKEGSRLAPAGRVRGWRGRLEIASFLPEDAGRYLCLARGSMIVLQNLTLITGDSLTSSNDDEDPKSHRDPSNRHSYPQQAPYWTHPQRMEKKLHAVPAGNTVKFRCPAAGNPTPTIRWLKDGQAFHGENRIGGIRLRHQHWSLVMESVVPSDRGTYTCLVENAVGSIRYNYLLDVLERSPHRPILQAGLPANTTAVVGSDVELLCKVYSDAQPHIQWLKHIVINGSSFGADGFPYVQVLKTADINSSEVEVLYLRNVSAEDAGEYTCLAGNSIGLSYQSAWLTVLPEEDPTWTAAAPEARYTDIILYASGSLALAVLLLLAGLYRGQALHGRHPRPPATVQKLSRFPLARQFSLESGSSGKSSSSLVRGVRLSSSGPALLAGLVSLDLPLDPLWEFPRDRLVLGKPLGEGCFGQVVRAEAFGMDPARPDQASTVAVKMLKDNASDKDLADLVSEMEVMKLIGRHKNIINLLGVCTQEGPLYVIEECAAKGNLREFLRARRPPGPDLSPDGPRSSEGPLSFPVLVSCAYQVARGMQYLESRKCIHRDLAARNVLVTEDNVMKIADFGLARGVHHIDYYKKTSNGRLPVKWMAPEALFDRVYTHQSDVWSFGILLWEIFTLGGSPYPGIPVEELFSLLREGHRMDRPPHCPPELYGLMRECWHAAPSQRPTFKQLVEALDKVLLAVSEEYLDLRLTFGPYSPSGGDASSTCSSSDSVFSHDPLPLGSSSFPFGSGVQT
Chain of panel of more than 300 wild-type and mutant kinases (313 kinase panel) (Homo sapiens, UniProt P49759) (P49759 whole entry, change not shown): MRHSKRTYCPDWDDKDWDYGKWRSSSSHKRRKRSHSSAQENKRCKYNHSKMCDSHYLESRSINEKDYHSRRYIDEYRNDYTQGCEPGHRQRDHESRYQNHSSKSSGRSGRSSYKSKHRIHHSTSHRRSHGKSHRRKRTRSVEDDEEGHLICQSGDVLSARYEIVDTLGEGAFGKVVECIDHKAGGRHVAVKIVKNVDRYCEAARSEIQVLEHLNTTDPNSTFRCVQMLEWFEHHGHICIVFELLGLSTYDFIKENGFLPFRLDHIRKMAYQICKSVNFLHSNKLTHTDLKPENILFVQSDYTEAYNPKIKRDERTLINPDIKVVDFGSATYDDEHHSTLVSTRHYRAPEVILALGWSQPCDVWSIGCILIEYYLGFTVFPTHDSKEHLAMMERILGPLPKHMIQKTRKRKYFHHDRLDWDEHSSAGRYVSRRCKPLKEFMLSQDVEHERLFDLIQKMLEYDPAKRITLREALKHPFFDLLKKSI
Chain of panel of more than 300 wild-type and mutant kinases (313 kinase panel) (Homo sapiens, UniProt P07947) (P07947 whole entry, change not shown): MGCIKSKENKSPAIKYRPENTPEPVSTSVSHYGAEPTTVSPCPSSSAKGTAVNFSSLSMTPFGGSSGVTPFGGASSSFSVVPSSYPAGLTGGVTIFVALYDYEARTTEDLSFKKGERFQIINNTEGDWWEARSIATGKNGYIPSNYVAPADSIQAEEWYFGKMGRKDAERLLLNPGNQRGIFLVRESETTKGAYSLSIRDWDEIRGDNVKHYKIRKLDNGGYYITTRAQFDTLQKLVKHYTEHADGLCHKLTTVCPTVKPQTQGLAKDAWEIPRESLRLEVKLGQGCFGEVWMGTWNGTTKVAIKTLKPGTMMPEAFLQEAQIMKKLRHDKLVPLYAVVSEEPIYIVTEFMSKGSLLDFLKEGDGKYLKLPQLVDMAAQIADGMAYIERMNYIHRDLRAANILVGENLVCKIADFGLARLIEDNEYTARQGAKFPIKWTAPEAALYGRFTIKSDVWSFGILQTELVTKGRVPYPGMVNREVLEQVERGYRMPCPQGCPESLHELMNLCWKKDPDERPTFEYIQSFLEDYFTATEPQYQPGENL

Row | SMILES | %-inhibition of MER ([1]; kinase MER, compound at 1 μM) [%] | %-inhibition, CK1α ([2]; kinase CK1α, 1 μM compound) [%] | %-inhibition of NEK6 ([3]; kinase NEK6, 1 μM) [%] | %-inhibition of MSK1 ([4]; kinase MSK1, 1 μM) [%] | %-inhibition, CLK1 ([5]; kinase CLK1, 1 μM compound) [%] | %-inhibition of PIM1 ([6]; kinase PIM1, 1 μM) [%] | %-inhibition, AurC ([7]; kinase AurC, 1 μM compound) [%] | %-inhibition of YES ([8]; kinase YES, compound at 1 μM) [%] | %-inhibition of PASK ([9]; kinase PASK, 1 μM) [%] | %-inhibition of TIE2 ([10]; kinase TIE2, 1 μM) [%] | %-inhibition of CLK3 ([11]; kinase CLK3, compound at 1 μM) [%] | %-inhibition of FGFR4(V550E) [12] [%] | %-inhibition of FRK ([13]; kinase FRK, compound at 1 μM) [%] | also measured
1 | COc1cc2nccc(Oc3ccc(NC(=O)C4(C(=O)Nc5ccc(F)cc5)CC4)cc3)c2cc1OC [cabozantinib] | 100 | -9 | -3.21 | -2 | 7 | -10 | 86 | 90 | -2.16 | 90 | -1.24 | -4 | – | –
2 | C[C@@H](Oc1cc(-c2cnn(C3CCNCC3)c2)cnc1N)c1c(Cl)ccc(F)c1Cl [crizotinib] | – | -1.36 | -2.72 | -0.641 | 13 | -7 | 87 | 65 | 1 | – | -5 | -0.358 | 26 | –
3 | Cc1nc(Nc2ncc(C(=O)Nc3c(C)cccc3Cl)s2)cc(N2CCN(CCO)CC2)n1 [dasatinib] | – | -8.44 | – | – | – | – | – | – | – | – | 0.469 | – | – | –
4 | C#Cc1cccc(Nc2ncnc3cc(OCCOC)c(OCCOC)cc23)c1 [erlotinib] | – | – | – | – | – | – | – | – | – | – | – | – | – | %-inhibition of FRK ([13]; 1 µM): 41%; %-inhibition of MET ([14]; 1 µM): 13%; %-inhibition of MER ([1]; 1 µM): 10%; %-inhibition, CK1α ([2]; 1 µM): 10%; %-inhibition of NEK6 ([3]; 1 µM): 2%; %-inhibition of MSK1 ([4]; 1 µM): 9%; %-inhibition, CLK1 ([5]; 1 µM): 21%; %-inhibition of PIM1 ([6]; 1 µM): 6%; %-inhibition, AurC ([7]; 1 µM): 24%; %-inhibition of YES ([8]; 1 µM): 51%; %-inhibition of PASK ([9]; 1 µM): -9%; %-inhibition of TIE2 ([10]; 1 µM): 9%; %-inhibition of CLK3 ([11]; 1 µM): -0.469%
5 | CS(=O)(=O)CCNCc1ccc(-c2ccc3ncnc(Nc4ccc(OCc5cccc(F)c5)c(Cl)c4)c3c2)o1 [lapatinib] | 6 | 3.6 | -4.3 | 7 | 14 | 0.601 | – | 26 | -5 | 2.14 | 0.469 | – | 0.586 | %-inhibition of MET ([14]; kinase MET, compound at 1 μM): 0%; %-inhibition, AurC ([7]; 1 µM): 3.4%
6 | Cc1cn(-c2cc(NC(=O)c3ccc(C)c(Nc4nccc(-c5cccnc5)n4)c3)cc(C(F)(F)F)c2)cn1 [nilotinib] | -46 | – | 1 | 2.48 | 81 | 8 | 5 | 44 | -3 | 41 | -10 | – | 70 | %-inhibition of MET ([14]; kinase MET, compound at 1 μM): -9%; %-inhibition, CK1α ([2]; 1 µM): 2%
7 | Cc1ccc(Nc2nccc(N(C)c3ccc4c(C)n(C)nc4c3)n2)cc1S(N)(=O)=O [pazopanib] | 34 | -4 | -3 | 0.901 | 7.57 | -1.49 | 58 | 68 | -2.41 | 26 | 0.791 | – | – | –
8 | CCN(CC)CCNC(=O)c1c(C)[nH]c(/C=C2\C(=O)Nc3ccc(F)cc32)c1C [sunitinib] | – | – | – | – | – | – | 82 | 99 | – | – | – | – | – | –
9 | COc1cc2c(Nc3ccc(Br)cc3F)ncnc2cc1OCC1CCN(C)CC1 [vandetanib] | 45 | -3.59 | -4.3 | -0.384 | 14 | -9 | – | 100 | -4.23 | 85 | -15 | -0.358 | 79 | –
